Experimental findings from PubChem BioAssay AID1259407 (Chemical Carcinogenesis Research Information System (CCRIS), 2018) are described below.

The source made the active and inactive calls. No rule for the calls is given here.

The subject of this series is CCRIS mutagenicity, Ames/micronucleus/aberration tests. As to the kind of experiment: CCRIS mutagenicity studies.
Setting [1] is: Test System: AMES SALMONELLA TYPHIMURIUM, Strain/Indicator: TA98, Metabolic Activation: NONE, Method: PREINCUBATION
Setting [2] is: Test System: AMES SALMONELLA TYPHIMURIUM, Strain/Indicator: TA100, Metabolic Activation: NONE, Method: PREINCUBATION
[3] abbreviates: Test System: AMES SALMONELLA TYPHIMURIUM, Strain/Indicator: TA1535, Metabolic Activation: NONE, Method: PREINCUBATION
[4] abbreviates: Test System: AMES SALMONELLA TYPHIMURIUM, Strain/Indicator: TA97, Metabolic Activation: HAMSTER, LIVER, S-9, AROCLOR 1254 (10 OR 30%), Method: PREINCUBATION
The mark [5] stands for this setting: Test System: AMES SALMONELLA TYPHIMURIUM, Strain/Indicator: TA97, Metabolic Activation: NONE, Method: PREINCUBATION
[6] abbreviates: Test System: AMES SALMONELLA TYPHIMURIUM, Strain/Indicator: TA97, Metabolic Activation: RAT, LIVER, S-9, AROCLOR 1254 (10 OR 30%), Method: PREINCUBATION
Where [7] appears, read: Test System: AMES SALMONELLA TYPHIMURIUM, Strain/Indicator: TA98, Metabolic Activation: HAMSTER, LIVER, S-9, AROCLOR 1254 (10 OR 30%), Method: PREINCUBATION
The mark [8] stands for this setting: Test System: AMES SALMONELLA TYPHIMURIUM, Strain/Indicator: TA98, Metabolic Activation: RAT, LIVER, S-9, AROCLOR 1254 (10 OR 30%), Method: PREINCUBATION
The mark [9] stands for this setting: Test System: AMES SALMONELLA TYPHIMURIUM, Strain/Indicator: TA100, Metabolic Activation: HAMSTER, LIVER, S-9, AROCLOR 1254 (10 OR 30%), Method: PREINCUBATION
The mark [10] stands for this setting: Test System: AMES SALMONELLA TYPHIMURIUM, Strain/Indicator: TA100, Metabolic Activation: RAT, LIVER, S-9, AROCLOR 1254 (10 OR 30%), Method: PREINCUBATION
The mark [11] stands for this setting: Test System: AMES SALMONELLA TYPHIMURIUM, Strain/Indicator: TA1535, Metabolic Activation: HAMSTER, LIVER, S-9, AROCLOR 1254 (10 OR 30%), Method: PREINCUBATION
[12] abbreviates: Test System: AMES SALMONELLA TYPHIMURIUM, Strain/Indicator: TA1535, Metabolic Activation: RAT, LIVER, S-9, AROCLOR 1254 (10 OR 30%), Method: PREINCUBATION

Take `O=C(O)c1ccc2c(c1)C(=O)OC2=O`: the mutagenic call (Test System: AMES SALMONELLA TYPHIMURIUM, Strain/Indicator: TA98, Metabolic Activation: HAMSTER, LIVER, S-9, AROCLOR 1254 (10%), Method: PREINCUBATION) was “inactive; negative”; the mutagenic call under setting [1] was “inactive; negative”; the mutagenic call (Test System: AMES SALMONELLA TYPHIMURIUM, Strain/Indicator: TA98, Metabolic Activation: RAT LIVER S-9, PHENOBARBITAL AND BETA-NAPHTHOFLAVONE, Method: PREINCUBATION) is “inactive; negative”; the mutagenic call (Test System: AMES SALMONELLA TYPHIMURIUM, Strain/Indicator: TA98, Metabolic Activation: RAT, LIVER, S-9, AROCLOR 1254 (10%), Method: PREINCUBATION) is “inactive; negative”; the mutagenic call (Test System: AMES SALMONELLA TYPHIMURIUM, Strain/Indicator: TA100, Metabolic Activation: HAMSTER, LIVER, S-9, AROCLOR 1254 (10%), Method: PREINCUBATION) was “inactive; negative”; the mutagenic call under setting [2] was “inactive; negative”. For the same compound, the mutagenic call (Test System: AMES SALMONELLA TYPHIMURIUM, Strain/Indicator: TA100, Metabolic Activation: RAT LIVER S-9, PHENOBARBITAL AND BETA-NAPHTHOFLAVONE, Method: PREINCUBATION) was “inactive; negative”; the mutagenic call (Test System: AMES SALMONELLA TYPHIMURIUM, Strain/Indicator: TA100, Metabolic Activation: RAT, LIVER, S-9, AROCLOR 1254 (10%), Method: PREINCUBATION) is “inactive; negative”; the mutagenic call (Test System: AMES SALMONELLA TYPHIMURIUM, Strain/Indicator: TA102, Metabolic Activation: NONE, Method: PREINCUBATION) was “inactive; negative”; the mutagenic call (Test System: AMES SALMONELLA TYPHIMURIUM, Strain/Indicator: TA102, Metabolic Activation: RAT LIVER S-9, PHENOBARBITAL AND BETA-NAPHTHOFLAVONE, Method: PREINCUBATION) was “inactive; negative”; the mutagenic call (Test System: AMES SALMONELLA TYPHIMURIUM, Strain/Indicator: TA104, Metabolic Activation: NONE, Method: PREINCUBATION) is “inactive; negative”; the mutagenic call (Test System: AMES SALMONELLA TYPHIMURIUM, Strain/Indicator: TA104, Metabolic Activation: RAT LIVER S-9, PHENOBARBITAL AND BETA-NAPHTHOFLAVONE, Method: PREINCUBATION) is “inactive; negative”. Besides, the mutagenic call runs as follows: (Test System: AMES SALMONELLA TYPHIMURIUM, Strain/Indicator: TA1535, Metabolic Activation: HAMSTER, LIVER, S-9, AROCLOR 1254 (10%), Method: PREINCUBATION) “inactive; negative”; under setting [3], “inactive; negative”; (Test System: AMES SALMONELLA TYPHIMURIUM, Strain/Indicator: TA1535, Metabolic Activation: RAT LIVER S-9, PHENOBARBITAL AND BETA-NAPHTHOFLAVONE, Method: PREINCUBATION) “inactive; negative”; (Test System: AMES SALMONELLA TYPHIMURIUM, Strain/Indicator: TA1535, Metabolic Activation: RAT, LIVER, S-9, AROCLOR 1254 (10%), Method: PREINCUBATION) “inactive; negative”; (Test System: AMES SALMONELLA TYPHIMURIUM, Strain/Indicator: TA1537, Metabolic Activation: HAMSTER, LIVER, S-9, AROCLOR 1254 (10%), Method: PREINCUBATION) “inactive; negative”; (Test System: AMES SALMONELLA TYPHIMURIUM, Strain/Indicator: TA1537, Metabolic Activation: NONE, Method: PREINCUBATION) “inactive; negative”. The mutagenic call by setting is: (Test System: AMES SALMONELLA TYPHIMURIUM, Strain/Indicator: TA1537, Metabolic Activation: RAT LIVER S-9, PHENOBARBITAL AND BETA-NAPHTHOFLAVONE, Method: PREINCUBATION) “inactive; negative”; (Test System: AMES SALMONELLA TYPHIMURIUM, Strain/Indicator: TA1537, Metabolic Activation: RAT, LIVER, S-9, AROCLOR 1254 (10%), Method: PREINCUBATION) “inactive; negative”; (Test System: E.COLI, Strain/Indicator: WP2UVRA/PKM101, Metabolic Activation: NONE, Method: PREINCUBATION) “inactive; negative”; (Test System: E.COLI, Strain/Indicator: WP2UVRA/PKM101, Metabolic Activation: RAT LIVER S-9, PHENOBARBITAL AND BETA-NAPHTHOFLAVONE, Method: PREINCUBATION) “inactive; negative”; (Test System: E.COLI, Strain/Indicator: WP2UVRA, Metabolic Activation: NONE, Method: PREINCUBATION) “inactive; negative”; (Test System: E.COLI, Strain/Indicator: WP2UVRA, Metabolic Activation: RAT LIVER S-9, PHENOBARBITAL AND BETA-NAPHTHOFLAVONE, Method: PREINCUBATION) “inactive; negative”.

On to `Nc1cc(Cl)cc(S(=O)(=O)O)c1O`, for which the mutagenic call by setting is: under setting [4], “inactive; negative”; under setting [5], “inactive; negative”; under setting [6], “inactive; negative”; under setting [7], “inactive; negative”; under setting [1], “inactive; negative”; under setting [8], “inactive; negative”. The mutagenic call reads like this: under setting [9], “inactive; negative”; under setting [2], “inactive; negative”; under setting [10], “inactive; negative”; under setting [11], “inactive; negative”; under setting [3], “inactive; negative”; under setting [12], “inactive; negative”.

As to `Cn1cnc2cc([N+](=O)[O-])ccc21`, the mutagenic call (Test System: AMES SALMONELLA TYPHIMURIUM, Strain/Indicator: TA98, Metabolic Activation: NONE, Method: STANDARD PLATE) is “inactive; negative”.

Turning to `COc1cc(-c2ccc(N/N=C3\C=C(S(=O)(=O)O)c4ccccc4C3=O)c(OC)c2)ccc1N=Nc1cc(S(=O)(=O)O)c2ccccc2c1N`, the mutagenic call under setting [4] is “inactive; negative”; the mutagenic call under setting [5] was “inactive; negative”; the mutagenic call under setting [6] is “inactive; negative”; the mutagenic call under setting [7] was “inactive; negative”; the mutagenic call under setting [1] was “inactive; negative”; the mutagenic call under setting [8] was “inactive; negative”. In addition, the mutagenic call reads like this: under setting [9], “inactive; negative”; under setting [2], “inactive; negative”; under setting [10], “inactive; negative”; under setting [11], “inactive; negative”; under setting [3], “inactive; negative”; under setting [12], “inactive; negative”. Also, the mutagenic call is “inactive; negative” (Test System: AMES SALMONELLA TYPHIMURIUM, Strain/Indicator: TA1538, Metabolic Activation: HAMSTER, LIVER, S-9, Method: STANDARD PLATE) and “inactive; negative” (Test System: AMES SALMONELLA TYPHIMURIUM, Strain/Indicator: TA1538, Metabolic Activation: RAT, LIVER, S-9, AROCLOR 1254, Method: STANDARD PLATE).

Regarding `N[C@@H](CS/C(Cl)=C(\Cl)C(Cl)=C(Cl)Cl)C(=O)O`, the mutagenic call under setting [2] was “active; positive”; the mutagenic call (Test System: AMES SALMONELLA TYPHIMURIUM, Strain/Indicator: TA100, Metabolic Activation: NONE, Method: STANDARD PLATE) is “active; positive”; the mutagenic call (Test System: AMES SALMONELLA TYPHIMURIUM, Strain/Indicator: TA100, Metabolic Activation: RAT, KIDNEY, S-9, AROCLOR 1254, Method: STANDARD PLATE) was “active; positive”; the mutagenic call (Test System: AMES SALMONELLA TYPHIMURIUM, Strain/Indicator: TA2638, Metabolic Activation: NONE, Method: PREINCUBATION) is “active; positive”.

As to `OC1(c2ccc(Cl)cc2)c2ccccc2C2=NCCN21` (configuration not stated), the mutagenic call was “active; positive” (Test System: CHINESE HAMSTER V-79, Strain/Indicator: V-79/6-THIOGUANINE, Metabolic Activation: NONE) and “active; positive” (Test System: CHINESE HAMSTER V-79, Strain/Indicator: V-79/6-THIOGUANINE, Metabolic Activation: S-9).
